Activity calls are given as the source filed them. No cut-off for these calls is given here.
Assays:
Caspase-1 (Mus musculus) = molecular target: T1, Caspase-1 (Mus musculus) (UniProt P29452); assay: Binding affinity to caspase-1 in LPS-induced mouse J774.A1 cells assessed as reduction in IL-1beta level at 0.5 uM preincubated with compound followed by nigericin addition; format: cell-based; details: time 3-24 hrs
T1 sequence (whole entry): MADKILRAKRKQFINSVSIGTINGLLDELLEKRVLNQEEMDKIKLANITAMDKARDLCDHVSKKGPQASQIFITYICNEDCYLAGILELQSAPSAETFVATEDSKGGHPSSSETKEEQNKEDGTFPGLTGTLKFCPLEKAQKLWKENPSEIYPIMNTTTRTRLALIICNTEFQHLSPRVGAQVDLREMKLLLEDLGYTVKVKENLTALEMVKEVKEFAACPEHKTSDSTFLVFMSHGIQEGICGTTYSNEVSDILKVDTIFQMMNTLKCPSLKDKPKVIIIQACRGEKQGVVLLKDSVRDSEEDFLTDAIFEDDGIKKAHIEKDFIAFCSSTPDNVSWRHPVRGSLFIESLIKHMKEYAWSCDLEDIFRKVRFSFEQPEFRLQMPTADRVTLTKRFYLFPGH

J774.A1 [1] = assay: Inhibition of pyroptosis in mouse J774.A1 cells assessed as reduction in LDH release at 0.5 to 2 uM pretreated with LPS for 3 hrs followed by compound addition in presence of nigericin; format: functional, cell-based; details: dose 0.5-2 µM
J774.A1 [2] = assay: Inhibition of pyroptosis in mouse J774.A1 cells assessed as reduction in number of annexin V and PI positive cells pretreated with LPS for 3 hrs followed by compound addition in presence of nigericin by flow cytometry analysis; format: functional, cell-based
J774.A1 [3] = assay: Downregulation of inhibitor kappa B-alpha phosphorylation in mouse J774.A1 cells preincubated for 30 mins followed by LPS addition and measured after 2 hrs by Western blotting analysis; format: functional, cell-based; details: time 2.5 hrs
J774.A1 [4] = assay: Downregulation of p65 phosphorylation in mouse J774.A1 cells preincubated for 30 mins followed by LPS addition and measured after 2 hrs by Western blotting analysis; format: functional, cell-based; details: time 2.5 hrs
Caspase-3 (Mus musculus) = molecular target: T2, Caspase-3 (Mus musculus) (UniProt P70677); assay: Inhibition of cisplatin induced caspase-3 activation in mouse J774.A1 cells at 0.5 uM preincubated for 30 mins followed by cisplatin addition and incubated overnight; format: cell-based
T2 sequence (whole entry): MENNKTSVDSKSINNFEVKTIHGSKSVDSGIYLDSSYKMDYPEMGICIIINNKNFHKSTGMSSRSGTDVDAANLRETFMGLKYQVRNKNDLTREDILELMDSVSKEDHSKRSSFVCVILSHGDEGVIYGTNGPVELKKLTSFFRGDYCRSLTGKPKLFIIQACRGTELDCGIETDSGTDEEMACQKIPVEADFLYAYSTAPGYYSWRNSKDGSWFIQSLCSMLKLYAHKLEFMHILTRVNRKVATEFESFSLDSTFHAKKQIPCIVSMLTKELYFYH

Caspase-7 (Mus musculus) = molecular target: T3, Caspase-7 (Mus musculus) (UniProt P97864); assay: Inhibition of cisplatin induced caspase-7 activation in mouse J774.A1 cells at 0.5 uM preincubated for 30 mins followed by cisplatin addition and incubated overnight; format: cell-based
T3 sequence (whole entry): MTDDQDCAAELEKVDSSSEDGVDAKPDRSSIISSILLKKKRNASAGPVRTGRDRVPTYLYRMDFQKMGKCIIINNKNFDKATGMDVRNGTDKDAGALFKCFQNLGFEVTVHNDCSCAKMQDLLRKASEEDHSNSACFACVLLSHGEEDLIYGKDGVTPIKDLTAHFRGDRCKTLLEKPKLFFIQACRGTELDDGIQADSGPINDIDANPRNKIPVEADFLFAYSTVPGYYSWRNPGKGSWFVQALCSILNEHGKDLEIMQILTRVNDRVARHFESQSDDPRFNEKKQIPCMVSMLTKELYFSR

J774.A1 [5] = assay: Inhibition of pyroptosis in mouse J774.A1 cells assessed as reduction in cleaved GSDMD expression pretreated with LPS for 3 hrs followed by compound addition in presence of nigericin by Western blotting analysis; format: functional, cell-based
J774.A1 [6] = assay: Downregulation of IKKalpha/beta phosphorylation in mouse J774.A1 cells preincubated for 30 mins followed by LPS addition and measured after 2 hrs by Western blotting analysis; format: functional, cell-based; details: time 2.5 hrs
J774.A1 [7] = assay: Inhibition of pyroptosis in mouse J774.A1 cells assessed as reduction in caspase-1 to GSDMD interaction at 0.5 uM pretreated with LPS for 3 hrs followed by compound addition in presence of nigericin by immunoprecipitation analysis; format: functional, cell-based
Mus musculus = assay: Anti-inflammatory activity in MSU/C18:0 free fatty acid induced ip dosed Kunming mouse model of gouty arthritis assessed as reduction in joint swelling preadministered with compound for 30 mins followed by MSU/C18:0 free fatty acid injection and measured after 24 hrs; format: functional, organism-based; details: time 24.5 hrs

SMILES	Activity (Caspase-1 (Mus musculus))	inhibition (J774.A1 [1])	inhibition (J774.A1 [2])	Activity (J774.A1 [3])	Activity (J774.A1 [4])	inhibition (Caspase-3 (Mus musculus))	inhibition (Caspase-7 (Mus musculus))	inhibition (J774.A1 [5])	Activity (J774.A1 [6])	inhibition (J774.A1 [7])	Activity (Mus musculus)
CCO[C@@H]1OC(=O)C[C@@H]1NC(=O)[C@@H]1CCCN1C(=O)[C@@H](NC(=O)c1ccc(N)c(Cl)c1)C(C)(C)C	inactive	Active	Active	Active	Active	inactive	inactive	Active	Active	Active	–
COc1cc2c(c(OC)c1OC)-c1ccc(OC)c(=O)cc1[C@@H](NC(C)=O)CC2	–	–	–	–	–	–	–	–	–	–	Active

From ChEMBL document CHEMBL5584334, “Discovery of a Covalent Inhibitor of Pro-Caspase-1 Zymogen Blocking NLRP3 Inflammasome Activation and Pyroptosis” (J Med Chem, 2024)
